Data on four compounds can be found in US9353144B2, “Vascular leakage inhibitor” (INDUSTRY-ACADEMIC COOPERATION FOUNDATION, YONSEI UNIVERSITY, priority 2011, dated 2016).

Each structure is given as a SMILES string.

The test system of assay [1] is HRECs (Human Retinal Endothelial Cells). To be noted: cited from earlier work; for ability to inhibit apoptosis (derivatives of previous researches, control groups): obtained in the previous researches by the inventors (Korean Patent Application Publication No. 2011-0047170); for ability to inhibit apoptosis, comparison in the previous researches: relative to Rk1 or to other earlier derivatives.

Assay [2] shares this test system. Description: Screening of synthesized derivatives for ability to inhibit serum depletion-induced vascular endothelial cell apoptosis (MTT assay, cell morphology). The assay is classed as cell-based. The settings on record: serum-free, 10 μg/ml; for ability to inhibit apoptosis, ranking among synthetic derivatives and control groups: comparison with control groups; for ability to inhibit apoptosis compared with Sac-1004: relative to control Sac-1004. The protocol: FIGS. 1a-1c and FIGS. 2a-2c show the result of screening Rk1 analogs that protect HRECs (Human Retinal Endothelial Cells) from serum depletion-induced apoptosis. HRECs (3×10^5 cells/well) were seeded on a 24-well plate in EGM9 medium containing 20% fetal bovine serum. The next day, the cells were transferred to a medium containing 10 μg/mL of the synthesized compound. Cell viability was determined by MTT assay 48 hours later. […] Con is indicative of cells treated with DMSO.
(§1) Human retinal endothelial cells (HRECs) purchased from Cell Systems (USA) were seeded on a 100 mm culture dish containing EGM medium (Life Technologies, USA) containing 20% (w/v) fetal bovine serum (FBS, HyClone, Canada), 100 units/mL penicillin (Invitrogen, USA), 100 μg/mL streptomycin (Invitrogen, USA), 3 ng/mL fibroblast growth factor (Upstate Biotechnology, USA) and 5 units/mL heparin and cultured in a 5% CO2 incubator at 37° C.
Based on the previous researches conducted by the present inventors, synthesized derivatives of Rk1 having a steroid backbone and having an ability to inhibit vascular endothelial cell apoptosis were screened. Vascular endothelial cells HRECs (3×10^5 cells/well) were plated on a 24-well plate in which 1 ml of EGM medium containing 20% fetal bovine serum was present. The next day, the cells were transferred to serum-free EGM media containing 10 μg/ml of the compounds synthesized in Synthetic Examples 1 and 2. After 24 hours, cell viability was determined by MTT assay (Mosmann T, Journal of Immunological Methods 65(1-2):5563(1983); Cory A H, et al., Cancer Communications 3(7):20712(1991)).

The test system is the same in assay [3]. Description: Ability to inhibit apoptosis of Sac-1009, Sac-1104 and Sac-1019 according to concentration (serum removal, MTT assay). The assay is classed as cell-based. The settings on record: for inhibition of apoptosis of HRECs, concentration dependence: serum-free EGM, 0, 0.1, 1, 5 and 10 μg/ml; for inhibition of apoptosis of HRECs, concentration dependence / concentration of the most effective ability to inhibit apoptosis: MTT after 48 hours, FIG. 3; for concentration of the most effective ability to inhibit apoptosis: serum-free EGM, tested 0-10 μg/ml; for cell viability of HRECs in a serum depletion environment: summary of test examples 1 and 2. The protocol:
HRECs (3×10^5 cells/well) were seeded on a 24-well plate in EGM medium containing 20% fetal bovine serum. The next day, the cells were transferred to a serum depletion EGM medium containing Sac-1009, Sac-1104 or Sac-1019. Sac-1009, Sac-1104 and Sac-1019 were added into the medium at a concentration of 0, 0.1, 1, 5 or 10 μg/mL, respectively. Cell viability was determined by MTT assay 48 hours later.
as §1
After apoptosis was induced by removing serum from the medium of vascular endothelial cells, Sac-1009, Sac-1104, and Sac-1019 were applied to cells to measure the ability to inhibit apoptosis. Vascular endothelial cells HRECs (3×10^5 cells/well) were plated on a 24-well plate in which 1 ml of EGM medium containing 20% fetal bovine serum was present. The next day, the cells were transferred to serum-free EGM media containing Sac-1009, Sac-1104, and Sac-1019. Sac-1009, Sac-1104, and Sac-1019 were added at concentrations of 0, 0.1, 1, 5, and 10 μg/ml. After 48 hours, cell viability was determined by MTT assay.

The test system is the same in assay [4]. Put plainly: Screening based on change in cytoskeleton: VEGF-induced actin stress fibers, rhodamine phalloidin staining. The assay is classed as cell-based. To be noted: for ability to inhibit the formation of actin stress fibers induced by VEGF: confluent HRECs pretreated with 10 μg/mL compound for 1 hour before 20 ng/ml VEGF, FIGS. 4 and 5; for abilities to inhibit the formation of actin stress fibers induced by VEGF and maintain the cortical actin ring structure, ranking: confluent HRECs, pretreated 1 hour, 20 ng/ml VEGF. As for the experimental part:
Confluent HRECs were pretreated with the compounds (10 μg/mL) for 60 minutes before treating with 20 ng/mL VEGF. The cells were then stained with rhodamine phalloidin.
as §1
It is known that the change in the actin structure of the cytoskeleton is closely related with the permeability of vascular endothelial cells. Increased permeability of vascular endothelial cells leads to an increase in actin stress fibers and a decrease in cortical actin ring structures. Based on this, the ability to inhibit vascular endothelial permeability of the synthesized derivatives of Rk1 was screened. Confluent HRECs were pretreated with […] the synthesized compounds for 1 hour before the treatment with 20 ng/ml VEGF (Upstate Biotechnology). Then, the cells were fixed with 4% paraformaldehyde for 20 minutes at room temperature, and washed 3 times with PBS (pH 7.4). Then, the cells were permeabilized with 0.1% Triton X-100/PBS, and reacted with 0.1 mg/ml rhodamine phalloidin (Molecular Probes) for 1 hour. Then, the cells were observed under a fluorescence microscope (Olympus).

Take `CC(=O)OCC1OC(OC2CCC3(C)C(=CCC4C3CCC3(C)C(C(C)CCCC(C)C)CCC43)C2)C=CC1OC(C)=O` (stereo not drawn) [Sac-0601]: in assay [1], the “ability to inhibit apoptosis (derivatives of previous researches, control groups)” value is recorded as “having an ability to inhibit apoptosis” and the “ability to inhibit apoptosis, comparison in the previous researches” value is recorded as “equivalent to that of Rk1”.

As for `COC(=O)CCC/C=C(\C)[C@H]1CCC2C3CC=C4C[C@@H](OC5C=C[C@H](OC(C)=O)[C@@H](COC(C)=O)O5)CC[C@]4(C)C3CC[C@@]21C` (stereo partly drawn) [Sac-1004], in assay [1], the “ability to inhibit apoptosis (derivatives of previous researches, control groups)” value is given as “having an ability to inhibit apoptosis” and the “ability to inhibit apoptosis, comparison in the previous researches” value is given as “the most excellent”.

Take `CC(=O)OC[C@H]1OC(O[C@H]2CC[C@@]3(C)C(=CCC4C3CC[C@@]3(C)C4CC[C@@H]3/C(C)=N/OC3CCCC3)C2)C=C[C@@H]1OC(C)=O` (stereo partly drawn) [Sac-1019]: in assay [2], the “ability to inhibit apoptosis, ranking among synthetic derivatives and control groups” value is “the most excellent”; the “ability to inhibit apoptosis compared with Sac-1004” value was “equivalent to that of Sac-1004”. Moreover, in assay [3], the “inhibition of apoptosis of HRECs, concentration dependence” value is reported as “concentration-dependent manner”; the “concentration of the most effective ability to inhibit apoptosis” value was 10 µg/mL; the “cell viability of HRECs in a serum depletion environment” value was “increase cell viability”. Besides, in assay [4], the “ability to inhibit the formation of actin stress fibers induced by VEGF” value is given as “inhibit the formation of actin stress fibers induced by VEGF”; the “abilities to inhibit the formation of actin stress fibers induced by VEGF and maintain the cortical actin ring structure, ranking” value is listed as “the most excellent”.

With `CC(=O)OC[C@H]1OC(O[C@H]2CC[C@@]3(C)C(=CCC4C3CC[C@@]3(C)C4CC[C@@H]3/C(C)=N/OC3C=CCCC3)C2)C=C[C@@H]1OC(C)=O` (stereo partly drawn) [Sac-1104], in assay [2], the “ability to inhibit apoptosis, ranking among synthetic derivatives and control groups” value is on record as “the most excellent”; the “ability to inhibit apoptosis compared with Sac-1004” value is “equivalent to that of Sac-1004”. In assay [3], the “inhibition of apoptosis of HRECs, concentration dependence” value is on record as “concentration-dependent manner”; the “concentration of the most effective ability to inhibit apoptosis” value came out at 10 µg/mL; the “cell viability of HRECs in a serum depletion environment” value is on record as “increase cell viability”. Further, in assay [4], the “ability to inhibit the formation of actin stress fibers induced by VEGF” value is reported as “inhibit the formation of actin stress fibers induced by VEGF”; the “abilities to inhibit the formation of actin stress fibers induced by VEGF and maintain the cortical actin ring structure, ranking” value is recorded as “the most excellent”.
